Tests used:
ALDH2 = target: T1, ALDH2 (Homo sapiens, UniProt P05091); assay: ABPP chemical proteomics (LC-MS/MS) in HEK293T cells; format: cell-based
T1 construct: endogenous in cells; host or cells: HEK293T
T1 sequence (P05091 18-517): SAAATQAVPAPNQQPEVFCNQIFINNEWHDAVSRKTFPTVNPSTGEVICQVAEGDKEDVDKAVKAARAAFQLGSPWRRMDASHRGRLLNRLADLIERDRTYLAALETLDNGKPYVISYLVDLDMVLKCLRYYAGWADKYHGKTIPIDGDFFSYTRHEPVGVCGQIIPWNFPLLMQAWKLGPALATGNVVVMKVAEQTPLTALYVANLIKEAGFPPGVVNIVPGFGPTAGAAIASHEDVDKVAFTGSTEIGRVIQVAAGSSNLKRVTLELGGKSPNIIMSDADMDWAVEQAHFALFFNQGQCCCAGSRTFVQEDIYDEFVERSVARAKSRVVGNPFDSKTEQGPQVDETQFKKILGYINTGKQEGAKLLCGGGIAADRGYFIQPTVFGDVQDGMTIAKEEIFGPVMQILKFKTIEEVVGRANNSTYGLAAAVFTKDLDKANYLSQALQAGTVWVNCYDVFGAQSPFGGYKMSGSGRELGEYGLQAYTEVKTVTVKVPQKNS
Method: (§1) To explore the selectivity of IMP-2587 and IMP-2586 across the whole proteome, we performed quantitative activity-based protein profiling (ABPP) in HEK293T cells following treatment with IMP-2587 or IMP-2586 (Fig. 3a). After ABP incubation, cells were lysed, and probe-labelled proteins were ligated to biotinylated capture reagents.[27] […] USP30 was outcompeted by corresponding parent inhibitors for each ABP (Fig. 5b and d and Tables S3 and S5, ESI ^†), confirming the high potency and rapid engagement of IMP-2587 and IMP-2586 in cells. […] DESI1 and DESI2 are small ubiquitin-related modifier (SUMO) proteases,[3,29–32] and IMP-2587 and IMP-2586 may offer a starting point for future development of DESI ABPs. […]
(§2) d) Live cell probe incubation, lysate click chemistry and precipitation 6-well HEK293T cells were incubated with media containing compounds ABP 2 and ABP 4 at indicated concentrations for 1 h at 37 °C. The cells were washed with PBS and lysed with lysis buffer (50 μL (1% (v/v) Triton X-100, 0.1% (w/v) sodium dodecyl sulfate (SDS), EDTA-free complete protease inhibitor cocktail (1×, Roche) in PBS on ice for 10 min. The lysates were scraped and transferred to corresponding Lo-Bind Eppendorfs. Each lysate was sonicated for 1 minute, and the samples centrifuges at 5,000 x g at 4 °C for 5 minutes to pellet insoluble cellular debris. The supernatant was collected, and protein concentration was determined using the DC Protein Assay (Bio-Rad) as per manufacturer’s instructions, and normalised to lowest concentrated sample (e.g. 1 mg/mL, using lysis buffer). The following “click mixture” was prepared separately, preparing 6 μL for every 100 μL of […]
(§3) Capture reagent (AzRB/AzT for ABP 2, YnT/YnB for ABP 4 10 mM in DMSO, 1 vol; final concentration […]
(§4) CuSO4 (50 mM in water, 2 vol; final concentration in reaction 1 mM)
(§5) TCEP (50 mM in water, 2 vol; final concentration in reaction 1 mM)
(§6) TBTA (10 mM in DMSO, 1 vol; final concentration in reaction 100 µM)
(§7) The click mixture was vortexed and incubated at room temperature for 2 min before 6 μL of the mixture was added to every 100 μL of lysate. The reaction mixtures were shaken at room temperature for 1 h before being quenched with EDTA (500 mM in H2O) to a final concentration of 10 mM.
(§8) Proteins were precipitated by adding H2O (1 vol), MeOH (2 vol) and CHCl3 (0.5 vol), vortexing briefly then centrifuging at 17,000 × g for 5 min. The top H2O/MeOH layer was discarded and the middle layer of protein pellet and lower CHCl3 layer retained. The suspension was washed with MeOH (300 μL), and sonicated to break up the pellet. The proteins were pelleted by centrifugation at 10,000–17000 × g for 5–10 min or until a compact pellet was formed. The protein pellet was washed once more with MeOH (1 mL). The pellet was resuspended by sonicating and completely dissolving in 1% (w/v) SDS in PBS (to 5 mg/mL protein) before being made up to 1 mg/mL protein with PBS. […]
(§9) f) Neutravidin biotin enrichment (Affinity pull-down)
(§10) Click chemistry and precipitation steps were carried out as described in section 3.2.d, on at least 400ug of protein per sample. The pellet was resuspended by sonicating and completely dissolving in 1% (w/v) SDS in HEPES 50 mM pH 8.0, before being made up to 1 mg/mL protein with HEPES 50 mM pH 8.0 to […]
(§11) achieve a final concentration of 0.2% SDS. 20uL of each samples was collected as TL (Total lysate) samples. Pull down of biotinylated proteins was achieved by incubating samples with pre-equilibrated (3x 1 mL washes with 0.2% (w/v) SDS in HEPES 50 mM pH 8 buffer) Pierce™ NeutrAvidin™ Agarose beads for 3 hours at room temperature. NeutrAvidin™ Agarose beads were used in ratio of 1 μL bead resin per 10ug of protein sample. The beads were subsequently washed by moderate shaking for 10 seconds then briefly pelleting by table-top centrifuge then vacuum aspirating the supernatant with fine-end pipette tips (to not disturb the agarose) after collecting 20 µL supernatant as SN (supernatant […]
(§12) ) samples. […]

USP30 = target: T2, USP30 (Homo sapiens, UniProt Q70CQ3); assay: as above; format: cell-based; conditions: for probe concentration for detection of USP30 activity in intact cells: 10 min incubation; for Difference (log2 fold change of enrichment): USP30
T2 construct: We next determined cellular engagement of endogenous USP30 with IMP-2587 or IMP-2586; endogenous in cells; host or cells: HEK293T
T2 sequence (Q70CQ3 1-517): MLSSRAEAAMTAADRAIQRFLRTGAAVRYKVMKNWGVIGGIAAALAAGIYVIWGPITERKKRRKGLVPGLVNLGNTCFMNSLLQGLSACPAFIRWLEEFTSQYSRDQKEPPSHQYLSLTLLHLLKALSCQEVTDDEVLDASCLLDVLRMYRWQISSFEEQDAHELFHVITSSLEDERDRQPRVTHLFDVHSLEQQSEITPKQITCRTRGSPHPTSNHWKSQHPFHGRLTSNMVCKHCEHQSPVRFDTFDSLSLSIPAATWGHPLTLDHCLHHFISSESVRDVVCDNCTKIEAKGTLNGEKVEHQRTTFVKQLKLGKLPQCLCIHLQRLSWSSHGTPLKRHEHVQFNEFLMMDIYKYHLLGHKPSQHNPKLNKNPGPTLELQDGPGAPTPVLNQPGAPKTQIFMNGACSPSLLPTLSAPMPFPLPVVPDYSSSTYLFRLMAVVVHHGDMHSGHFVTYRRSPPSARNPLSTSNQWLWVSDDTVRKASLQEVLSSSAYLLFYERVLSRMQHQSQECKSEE
Method: as §1, §2, §3, §4, §5, §6, §7, §8, §9, §10, §11, §12

[1] = IMP-2586 labelling vs DMSO, 30 nM, 10 min, HEK293T (Table S4, Fig.5c)
[2] = compound 1 out-competition with IMP-2587 labelling, HEK293T (Table S3, Fig.5b)
[3] = compound 3 out-competition with IMP-2586 labelling, HEK293T (Table S5, Fig.5d)

N#CN1CC[C@@H](NC(=O)c2cc(-c3ccccc3Oc3ccc(N=[N+]=[N-])cc3)n[nH]2)C1 [IMP-2586]
Difference (log2 fold change of enrichment) (ALDH2; [1]): 2.13
probe concentration for detection of USP30 activity in intact cells (USP30): 30 nM
Difference (log2 fold change of enrichment) (USP30; [1]): 4.80

C#Cc1cccc(-c2cc(NC(=O)CC3CCN(C#N)C3)on2)c1 (stereo not drawn) [IMP-2587]
Difference (log2 fold change of enrichment) (ALDH2; IMP-2587 labelling vs DMSO, 30 nM, 10 min, HEK293T (Table S2, Fig.5a)): 3.49
probe concentration for detection of USP30 activity in intact cells (USP30): 30 nM

N#CN1CC[C@H](CC(=O)Nc2cc(-c3cccc(Cl)c3)no2)C1 [compound 1, reference compound]
Difference (log2 fold change of enrichment) (ALDH2; [2]): -3.07
Difference (log2 fold change of enrichment) (USP30; [2]): -1.82

N#CN1CC[C@@H](NC(=O)c2cc(-c3ccccc3Oc3ccccc3)n[nH]2)C1 [compound 3, reference compound]
Difference (log2 fold change of enrichment) (ALDH2; [3]): -1.64
Difference (log2 fold change of enrichment) (USP30; [3]): -4.18
